Tests used:
CD73 [1] = target: T1, CD73 (Homo sapiens, UniProt P21589); assay: CD73 Biochemical IC50 Assay; settings: CD73 enzyme (R&D system) final 0.3 nM, final AMP 15 uM, 60 mins incubation, Rapid fire
T1 sequence (P21589 27-549): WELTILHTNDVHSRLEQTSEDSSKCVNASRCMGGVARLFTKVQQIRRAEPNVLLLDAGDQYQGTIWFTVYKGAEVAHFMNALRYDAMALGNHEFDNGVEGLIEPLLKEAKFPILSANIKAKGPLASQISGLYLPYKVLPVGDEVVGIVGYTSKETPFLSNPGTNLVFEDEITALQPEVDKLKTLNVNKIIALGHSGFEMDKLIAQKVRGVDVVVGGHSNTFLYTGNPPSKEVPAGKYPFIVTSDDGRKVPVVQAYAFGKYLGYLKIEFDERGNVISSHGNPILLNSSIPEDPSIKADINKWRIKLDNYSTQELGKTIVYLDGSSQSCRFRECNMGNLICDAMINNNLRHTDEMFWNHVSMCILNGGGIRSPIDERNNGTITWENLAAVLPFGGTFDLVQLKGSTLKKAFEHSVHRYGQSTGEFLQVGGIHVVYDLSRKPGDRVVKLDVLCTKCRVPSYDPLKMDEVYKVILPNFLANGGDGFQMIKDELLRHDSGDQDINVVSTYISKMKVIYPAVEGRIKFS
Experimental: CD73 Biochemical IC50 Assay
Compound serial dilutions were pre-spotted into Thermo Nunc assay plate. 50 μL CD73 enzyme buffer (CD73 purchased from R&D system=0.6 nM, 25 mM Tris, pH 7.4, 5 mM MgCl2, 1 mM NaH2PO4) was added into the assay plate and incubated for 15 mins. […] After incubation for 60 mins, the supernatant 20 uL was transferred into 384-well NUNC plate pre-filled with 60 ul Quench buffer (80% organic and 20% water+0.1% FA) with internal standard. The plate was spun down at 4500 rpm for 20 mins, then 20 μl of supernatant was transferred to another Nunc plate prefilled with 80 μl of water. The samples were run using Rapid fire.

CD73 [2] = target: T1, CD73; assay: MDA-MB-231 Cell Based CD73 Activity Assay (DMEM); parameters: endogenous in cells; host or cells: MDA-MB-231-GFP; settings: MDA-MB-231-GFP cells, DMEM with 10% human plasma, overnight compound treatment, 200 uM AMP, 100 mins
Experimental: Cells were plated into assay plate with compounds pre-spotted, for an overnight compound treatment. 50 uL of 400 uM AMP (final concentration will be 200 uM) was added using Bio-tek dispenser. Plates were incubated for 100 mins. 20 uL of supernatant was transferred into 384-well NUNC plate pre-filled with 60 ul Quench buffer (80% organic and 20% water+0.1% FA) with internal standard. The plates were spun down at 4500 rpm for 20 mins, then 20 ul of supernatant was transferred to another Nunc plate prefilled with 80 ul of water. The samples were analyzed using Rapid fire.

| SMILES | IC50 (CD73 [1]) | EC50 (CD73 [2]) |
| --- | --- | --- |
| CCc1nc(-c2c[nH]c(=O)[nH]c2=O)cc(N2C[C@H](Oc3cc4c(cn3)cnn4CC(F)(F)F)C(F)(F)C2)n1 [Example 1, (S)-6-(3,3-difluoro-4-((1-(2,2,2-trifluoroethyl)-1H-pyrazolo[4,3-c]pyridin-6-yl)oxy)pyrrolidin-1-yl)-2-ethyl-[4,5′-bipyrimidine]-2′,4′ (1′H,3′H)-dione] | 12.7 nM | 33.7 nM |
| O=c1[nH]cc(-c2cc(N3C[C@H](Oc4cc5c(cn4)cnn5CC(F)(F)F)C(F)(F)C3)nc(C3CC3)n2)c(=O)[nH]1 [Example 3, (S)-2-cyclopropyl-6-(3,3-difluoro-4-((1-(2,2,2-trifluoroethyl)-1H-pyrazolo[4,3-c]pyridin-6-yl)oxy)pyrrolidin-1-yl)-[4,5′-bipyrimidine]-2′,4′ (1′H,3′H)-dione] | 25.7 nM | > 50 nM |
| Cc1cc(N2C[C@H](Oc3cc4c(cn3)cnn4CC(F)(F)F)C(F)(F)C2)cc(-c2c[nH]c(=O)[nH]c2=O)n1 [Example 10, (S)-5-(4-(3,3-difluoro-4-((1-(2,2,2-trifluoroethyl)-1H-pyrazolo[4,3-c]pyridin-6-yl)oxy)pyrrolidin-1-yl)-6-methylpyridin-2-yl)pyrimidine-2,4(1H,3H)-dione] | 41 nM | 49 nM |
| O=c1[nH]cc(-c2cc(N3C[C@H](Oc4cc5c(cn4)cnn5CC(F)(F)F)C(F)(F)C3)cc(C(F)(F)F)n2)c(=O)[nH]1 [Example 11, (S)-5-(4-(3,3-difluoro-4-((1-(2,2,2-trifluoroethyl)-1H-pyrazolo[4,3-c]pyridin-6-yl)oxy)pyrrolidin-1-yl)-6-(trifluoromethyl)pyridin-2-yl)pyrimidine-2,4(1H,3H)-dione] | 12.8 nM | 22.5 nM |
| COc1cc(N2C[C@H](Oc3cc4c(cn3)cnn4CC(F)(F)F)C(F)(F)C2)cc(-c2c[nH]c(=O)[nH]c2=O)n1 [Example 12, (S)-5-(4-(3,3-difluoro-4-((1-(2,2,2-trifluoroethyl)-1H-pyrazolo[4,3-c]pyridin-6-yl)oxy)pyrrolidin-1-yl)-6-methoxypyridin-2-yl)pyrimidine-2,4(1H,3H)-dione] | 8.95 nM | 27.1 nM |
| Cc1nc(-c2c[nH]c(=O)[nH]c2=O)cc(N2C[C@H](Oc3cc(C(F)(F)F)ccn3)C(F)(F)C2)n1 [Example 13, 5-[6-[(4S)-3,3-difluoro-4-[[4-(trifluoromethyl)-2-pyridyl]oxy]pyrrolidin-1-yl]-2-methyl-pyrimidin-4-yl]-1H-pyrimidine-2,4-dione] | 31.3 nM | > 50 nM |
| Cc1nc(-c2c[nH]c(=O)[nH]c2=O)cc(N2C[C@H](Oc3cc(C(F)F)c(F)cn3)C(F)(F)C2)n1 [Example 15, (S)-6-(4-((4-(difluoromethyl)-5-fluoropyridin-2-yl)oxy)-3,3-difluoropyrrolidin-1-yl)-2-methyl-[4,5′-bipyrimidine]-2′,4′ (1′H,3′H)-dione] | 10.2 nM | > 50 nM |
| Cc1nc(-c2c[nH]c(=O)[nH]c2=O)cc(N2C[C@H](Oc3ccncc3)C(F)(F)C2)n1 [Example 20, (S)-6-(3,3-difluoro-4-(pyridin-4-yloxy)pyrrolidin-1-yl)-2-methyl-[4,5′-bipyrimidine]-2′,4′ (1′H,3′H)-dione] | 8.7 nM | > 50 nM |
| Cc1nc(-c2c[nH]c(=O)[nH]c2=O)cc(N2C[C@H](Oc3cc4c(cnn4CC(F)(F)F)cc3F)C(F)(F)C2)n1 [Example 23, (S)-6-(3,3-difluoro-4-((5-fluoro-1-(2,2,2-trifluoroethyl)-1H-indazol-6-yl)oxy)pyrrolidin-1-yl)-2-methyl-[4,5′-bipyrimidine]-2′,4′ (1′H,3′H)-dione] | 14.4 nM | > 50 nM |

The next molecules have a lower IC50 (CD73 [1]) than those just listed; values first:

| IC50 (CD73 [1]) | EC50 (CD73 [2]) | SMILES |
| --- | --- | --- |
| 7.14 nM | 35.7 nM | O=c1[nH]cc(-c2cc(N3C[C@H](Oc4cc5c(cn4)cnn5CC(F)(F)F)C(F)(F)C3)nc(C(F)(F)F)n2)c(=O)[nH]1 [Example 6, (S)-6-(3,3-difluoro-4-((1-(2,2,2-trifluoroethyl)-1H-pyrazolo[4,3-c]pyridin-6-yl)oxy)pyrrolidin-1-yl)-2-(trifluoromethyl)-[4,5′-bipyrimidine]-2′,4′ (1′H,3′H)-dione] |
| 4.28 nM | 1.07 nM | Cc1nc(-c2c[nH]c(=O)[nH]c2=O)cc(N2C[C@H](Oc3ccnc(C4(C(F)(F)F)CC4)c3)C(F)(F)C2)n1 [Example 7, (S)-6-(3,3-difluoro-4-((2-(1-(trifluoromethyl)cyclopropyl)pyridin-4-yl)oxy)pyrrolidin-1-yl)-2-methyl-[4,5′-bipyrimidine]-2′,4′ (1′H,3′H)-dione] |
| 4.92 nM | > 50 nM | Cc1nc(-c2c[nH]c(=O)[nH]c2=O)cc(N2C[C@H](Oc3cc(OC(F)F)ccn3)C(F)(F)C2)n1 [Example 14, (S)-6-(4-((4-(difluoromethoxy)pyridin-2-yl)oxy)-3,3-difluoropyrrolidin-1-yl)-2-methyl-[4,5′-bipyrimidine]-2′,4′ (1′H,3′H)-dione] |
| 6.28 nM | > 50 nM | Cc1nc(-c2c[nH]c(=O)[nH]c2=O)cc(N2C[C@H](Oc3ccc(F)c(C(F)F)c3)C(F)(F)C2)n1 [Example 16, (S)-6-(4-(3-(difluoromethyl)-4-fluorophenoxy)-3,3-difluoropyrrolidin-1-yl)-2-methyl-[4,5′-bipyrimidine]-2′,4′ (1′ H,3′ H)-dione] |
| 4.21 nM | > 50 nM | Cc1nc(-c2c[nH]c(=O)[nH]c2=O)cc(N2C[C@H](Oc3ccc(F)c(OC(F)F)c3)C(F)(F)C2)n1 [Example 17, (S)-6-(4-(3-(difluoromethoxy)-4-fluorophenoxy)-3,3-difluoropyrrolidin-1-yl)-2-methyl-[4,5′-bipyrimidine]-2′,4′ (1′H,3′H)-dione] |
| 5.7 nM | 32.9 nM | Cc1nc(-c2c[nH]c(=O)[nH]c2=O)cc(N2C[C@H](Oc3ccnc(C(F)(F)F)c3)C(F)(F)C2)n1 [Example 18, (S)-6-(3,3-difluoro-4-((2-(trifluoromethyl)pyridin-4-yl)oxy)pyrrolidin-1-yl)-2-methyl-[4,5′-bipyrimidine]-2′,4′ (1′ H,3′ H)-dione] |
| 6.26 nM | 26 nM | Cc1nc(-c2c[nH]c(=O)[nH]c2=O)cc(N2C[C@H](Oc3ccc4cnn(CC(F)(F)F)c4c3)C(F)(F)C2)n1 [Example 19, (S)-6-(3,3-difluoro-4-((1-(2,2,2-trifluoroethyl)-1H-indazol-6-yl)oxy)pyrrolidin-1-yl)-2-methyl-[4,5′-bipyrimidine]-2′,4′ (1′H,3′H)-dione] |
| 4.97 nM | 39.7 nM | Cc1nc(-c2c[nH]c(=O)[nH]c2=O)cc(N2C[C@H](Oc3ccnc(C(F)F)c3)C(F)(F)C2)n1 [Example 21, (S)-6-(4-((2-(difluoromethyl)pyridin-4-yl)oxy)-3,3-difluoropyrrolidin-1-yl)-2-methyl-[4,5′-bipyrimidine]-2′,4′ (1′ H,3′ H)-dione] |
| 7.67 nM | > 50 nM | Cc1cc(O[C@H]2CN(c3cc(-c4c[nH]c(=O)[nH]c4=O)nc(C)n3)CC2(F)F)ccn1 [Example 24, (S)-6-(3,3-difluoro-4-((2-methylpyridin-4-yl)oxy)pyrrolidin-1-yl)-2-methyl-[4,5′-bipyrimidine]-2′,4′ (1′H,3′H)-dione] |
